Literature values, collected in patent publication US9314419B2, “Oral care compositions with a reduced bitter taste perception” (The Procter & Gamble Company, priority 2014, dated 2016).

Conditions: concentration level where the cooling effect can be clearly recognized

Question: Which cooling threshold does the source give for `CC(C)[C@@H]1CC[C@@H](C)C[C@H]1O` [L-menthol] here?
Answer: about 800 ppb

Question: For `CC(C)[C@@H]1CC[C@@H](C)C[C@@H]1O` [d-neomenthol], which cooling threshold is on record?
Answer: about 25,000 ppb

Question: Which cooling threshold does the source give for `CC(C)[C@@H]1CC[C@@H](C)C[C@@H]1O` [Example 1-neomenthol, 1-neomenthol] here?
Answer: about 3,000 ppb
